Patent publication US6573289B1, “Naphthalene derivatives, their production and use” (Takeda Chemical Industries, Ltd., priority 1998, dated 2003)
Structures can show the parent of a compound that is named as a salt.

What was measured:
[1] = system: testosterone biosynthesis; test: Assay of inhibitory activity on testosterone biosynthesis in rat; format: in vivo; details: male SD rats, oral, 50 mg/kg, serum testosterone 2 h later, percentage of control group
Protocol: Assay of Inhibitory Activity on Testosterone Biosynthesis in Rat
Test compounds were orally administered to 9-week old, male SD (Spague-Dawley) rats at a dose of 50 mg/kg. Two-h later blood was taken and testosterone concentration in serum was measured by radioimmunoassay. The percentage of the testosterone concentration of the groups of rats, which received test compounds, to that of the control group was calculated, and regarded as the inhibitory activity.

[2] = target: T1, Rat Steroid C17-20-Lyase (Rattus norvegicus, UniProt P11715); test: Assay of inhibitory activity on rat steroid C17-20-lyase in vitro; format: biochemical; details: rat testicular microsomes, 10 nM [1,2-3H]-17-α-hydroxyprogesterone, NADPH, 7 min at 37° C.; products testosterone and androstenedione reduced by 50%
T1 construct: testicular microsomes were prepared by a series of centrifugation; from tissue; host or cells: testicular microsomes of 13-week old male SD rats
T1 sequence (P11715 1-507): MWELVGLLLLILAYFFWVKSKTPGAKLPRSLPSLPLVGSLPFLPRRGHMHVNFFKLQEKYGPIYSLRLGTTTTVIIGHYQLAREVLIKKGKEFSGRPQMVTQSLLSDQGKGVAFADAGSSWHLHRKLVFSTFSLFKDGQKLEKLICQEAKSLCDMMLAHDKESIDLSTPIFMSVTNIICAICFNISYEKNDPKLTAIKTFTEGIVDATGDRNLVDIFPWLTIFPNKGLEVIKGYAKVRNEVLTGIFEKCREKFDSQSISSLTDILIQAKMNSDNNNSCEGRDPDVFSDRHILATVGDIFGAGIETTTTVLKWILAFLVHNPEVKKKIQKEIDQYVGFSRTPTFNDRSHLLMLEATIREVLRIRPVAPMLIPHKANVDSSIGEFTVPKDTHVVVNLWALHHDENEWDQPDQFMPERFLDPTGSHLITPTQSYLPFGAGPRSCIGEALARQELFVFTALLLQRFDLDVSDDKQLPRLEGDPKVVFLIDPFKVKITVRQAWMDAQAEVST
Protocol: Assay of Inhibitory Activity on Rat Steroid C17-20-Lyase In Vitro
Inhibitory activity was determined according to the method described in The Prostate, vol.26, 140-150(1995) with some modifications.
Testes excised from 13-week old, male SD rats were homogenized, and testicular microsomes were prepared by a series of centrifugation. The microsome protein (7 μg/10 μl) was added to 10 μl of 100 mM phosphate buffer (pH 7.4) in which 10 nM (final concentration) [1,2-3H]-17-α-hydroxyprogesterone, NADPH, and test compounds were dissolved. The reaction mixture was incubated for 7 min at 37° C., terminated by addition of 40 μl of Ethyl acetate, and briefly centrifuged. The substrate and the products (testosterone and androstenedione) in the upper phase were separated by silica gel thin layer chromatography. Detection of the spots and measurement of the radioactivity were performed by a BAS 2000 Bioimage analyzer. The concentration of the test compounds necessary to reduce the concentration of the products by 50% (The concentration in the control group in which no test compound was added was taken as 100%) was calculated, and shown in Table 1.

IC50 [2]	SMILES	Inhibitory activity on testosterone biosynthesis (T/C, %) [1]
33 nM	COc1ccc2cc(C(O)(c3c[nH]cn3)C(C)C)ccc2c1 (stereo not drawn) [Example 1, 1-(1H-Imidazol-4-yl)-1-(6-methoxynaphthalen-2-yl)-2-methyl-1-propanol]	2.0%
64 nM	COc1ccc2cc(C(O)(c3c[nH]cn3)C3CC3)ccc2c1 (stereo not drawn) [Example 4, Cyclopropyl-(6-methoxynaphthalen-2-yl)-(1H-imidazol-4-yl)methanol Fumarate]	–
32 nM	COc1ccc2cc(C(O)(c3ccncc3)C(C)C)ccc2c1 (stereo not drawn) [Example 9, 1-(6-Methoxynaphthalen-2-yl)-2-methyl-1-(pyridin-4-yl)-1-propanol]	–
32 nM	COc1ccc2cc(C(O)(c3c[nH]cn3)C(C)C)ccc2c1F (stereo not drawn) [Example 11, 1-(5-Fluoro-6-methoxynaphthalen-2-yl)-1-(1H-imidazol-4-yl)-2-methyl-1-propanol]	9.0%

SMILES	IC50 [2]	Inhibitory activity on testosterone biosynthesis (T/C, %) [1]
CCC(O)(c1ccc2cc(OC)ccc2c1)c1c[nH]cn1 (stereo not drawn) [Example 12, 1-(1H-Imidazol-4-yl)-1-(6-methoxynaphthalen-2-yl)-1-propanol]	41 nM	10%
COc1ccc2cc(C(C)(OC)c3c[nH]cn3)ccc2c1 (stereo not drawn) [Example 19, 4-[1-Methoxy-1-(6-methoxynaphthalen-2-yl)ethyl]-1H-imidazole]	35 nM	–
